# According to PMC7997937 (AMB Express, 2021):
# Where no end group is shown, it is not given here.
# Columns and labels:
# MRSA ATCC43300 [1] = test: microbe, parasite or virus in culture
# Procedure: (§1) The MIC values of peptides against test stains were determined by the microtiter broth dilution method. The bacteria were grown to mid-logarithmic phase and diluted to 1 × 10^5 CFU/mL. Two-fold serial dilutions of peptides were prepared with a gradient concentration of 1280, 640, 320, 160, 80, 40, 20, 10, 5, 2.5, 1.25, and 0.625 μg/mL. A total of 10 μL each serial concentration gradient peptide solutions and 90 μL bacterial suspension were added into 96-well plates. Then the plate was cultured at 37 ℃ for 16–24 h. Vancomycin was tested as control. All assays were performed in triplicate. The MIC refers to the lowest peptide concentration at which there is no visible growth of bacteria (Wiegand et al. [2008]).
# MSSA ATCC25923 = test: microbe, parasite or virus in culture
# Procedure: as §1
# MSSA ATCC6538 = test: microbe, parasite or virus in culture
# Procedure: as §1
# MRSA ATCC43300 [2] = test: Time-kill curves; type: cell-based, Staphylococcus aureus; conditions: 2× MIC
# Procedure: The time-kill curves against MRSA ATCC43300 were assayed to evaluate the pharmacodynamics of peptides. The mid-log phase bacteria were diluted to 1×10^5 CFU/mL with fresh medium. […] Finally, the mixtures were cultured at 37 °C and 250 rpm. Samples (150 μL) were taken from each flask at 0, 0.5, 1, 2, 4, 6, 8, 10, 12 and 24 h of incubation, and antimicrobial efficiency was measured by plate colony count (Yang et al. [2019]). Treatment with peptide solvent (PBS) and vancomycin at 2× MIC were used as the negative and positive control. All tests were run in triplicate.
# [3] = ppGpp binding affinity by ZIC-HILIC HPLC; conditions: ppGpp 1000 μg/mL + peptide 400 μg/mL, 10 min, centrifuged, HPLC UV 260 nm; mean of triplicate; ppGpp control peak area 34904
# Procedure: The temperature of the column is kept at 25 ℃. The ppGpp (TriLink BioTechnologies, USA) which diluted with mobile phase to a concentration of 1000 μg/mL, was used as a positive control. Then the ppGpp (1000 μg/mL) was incubated with peptides (400 μg/mL) for 10 min and centrifuged at 12000 rpm for 10 min. The ppGpp concentration of the samples was calculated by comparing the peak areas of the ppGpp standard.
# [4] = Temperature stability (MIC read-out); type: physicochemical; conditions: MIC against MRSA ATCC43300
# Procedure: (§2) The untreated peptides were used as control. […] All assays were performed in triplicate.
# [5] = type: physicochemical; conditions: for MIC at pH 2–10, folds of the normal condition: 3 h incubation in buffers pH 2.0–10.0, relative to MH medium
# Procedure: as §2
# trypsin = trypsin 250 U/mg, pH 8.0, 10:1 w/w, 4 h, 37 °C; MIC against MRSA ATCC43300
# Procedure: (§3) The pH stability of peptides was determined after 3 h incubation in 100 mM glycine-HCl buffer (pH 2.0), sodium acetate buffer (pH 4.0), sodium phosphate buffer (pH 6.0), Tris-HCl buffer (pH 8.0), or glycine-NaOH buffer (pH 10.0). Additionally, peptides were incubated in pepsin (3000 U/mg, pH 2.0) and trypsin (250 U/mg, pH 8.0) (10:1, w/w) solutions for 4 h at 37 °C, respectively. The untreated peptides were used as control. The antibacterial activity of treated peptides against MRSA ATCC43300 was determined by MIC determine assay (Yang et al. [2017]). All assays were performed in triplicate.
# [6] = system: genomic DNA from MRSA ATCC43300; test: Gel retardation assay; type: binding, Staphylococcus aureus; conditions: 10 min, room temperature, 1% agarose gel
# Procedure: To examine the interaction of peptides and MRSA genomic DNA, the gel migration experiment was performed. Genomic DNA was obtained by bacterial genome extraction kit. Different concentrations (0.625 to 20 μg/mL) of peptides and DNA were mixed and incubated for 10 min at room temperature. The migration of genomic DNA was analyzed by electrophoresis on a 1% agarose gel.
# MRSA ATCC43300 biofilm [7] = test: Inhibition of biofilm formation, crystal violet; type: cell-based, Staphylococcus aureus
# Procedure: To evaluate the effect of peptides on the biofilm information, mid-logarithmic phase MRSA ATCC43300 (1×10^8 CFU/mL) was grown in tryptic soy broth (TSB) medium on 96-well plates at 37 °C […] in the presence (2–64 μg/mL) or absence of peptides (de Breij et al. [2018]; de Breij et al. [2016]). Subsequently, the planktonic bacteria were removed and biofilms were stained for 30 min with 0.1% crystal violet. After rinsing with PBS twice, the dye binding to the adherent bacterial cells was resolubilized in 95% ethanol (200 μL/well). Finally, absorbance was measured at 570 nm with a microplate reader. Fresh TSB medium was used as negative control.
# [8] = ref de la Fuente-Nunez et al. [2014]; cited from earlier work
# Text: Antimicrobial peptides (AMPs) are kind of bioactive agents with multiple modes of action and appear as one of the most promising antimicrobial drug candidates (Hancock and Sahl [2006]). […] The antimicrobial activity of AMPs was mainly based on their positive charge and hydrophobic residues, which gave them the properties of bacterial cell membrane destruction (Mahlapuu et al. [2016]). Among them, a small synth ...
# pepsin = pepsin 3000 U/mg, pH 2.0, 10:1 w/w, 4 h, 37 °C; MIC against MRSA ATCC43300
# Procedure: as §3
# MRSA ATCC43300 [9] = test: SEM/TEM observation of treated bacteria; type: cell-based, Staphylococcus aureus; conditions: 4× MIC, 2 h, 37 °C
# Procedure: The bacteria were fixed with 2.5% glutaraldehyde at 4 °C overnight. For SEM, the bacterial were then dehydrated with a series of graded ethanol solutions (20%, 50%, 70%, 85%, 95% and 100%) and dried by CO2. Gold-palladium was sputtered on samples and observed on a S4800 SEM. For TEM, bacterial were post-fixed with 1% OsO4 for 1 h and then dehydrated for 7 min each time with a graded acetone series (50%, 70%, 85%, 95% and 100%). The samples were immersed in epoxy resin and embedded in capsules containing embedding medium, polymerized at 45 °C for 3 h and at 65 °C for 24 h, respectively. Ultramicrotome was used to acquire thin sections, followed by staining with 1% uranyl acetate. Images were visualized by a Hitachi H-7650 TEM (Yang et al. [2019]).
# MRSA ATCC43300 biofilm [10] = test: Biofilms observed by CLSM and SEM; type: cell-based, Staphylococcus aureus; conditions: 64 μg/mL, 24 h, SYTO9/PI
# Procedure: In order to further explore whether the formation of MRSA ATCC43300 biofilms can be inhibited by peptides, the mid-log phase bacteria were diluted to 1 × 10^8 CFU/mL with TSB medium and seeded into 24-well plates with a glass microscope slide or silicon slice in each well. A concentration of 64 μg/mL peptides were added into plates and incubated for 24 h. Planktonic bacteria were removed by washing with PBS gently. Biofilms on glass microscope slide were stained with SYTO9 and PI according to the instruction (LIVE/DEAD BacLight Bacterial Viability Kit). After incubation for 15 min, the slides were washed with PBS and the biofilms were visualized by SP8 CLSM. Biofilm on silicon slice could be observed by SEM after immobilization, dehydration, drying and coating (Yang et al. [2019]).
# MRSA ATCC43300 [11] = test: qRT-PCR of ppGpp metabolism and biofilm formation related genes; type: cell-based, Staphylococcus aureus; conditions: 4× MIC, 2 h, 16s rRNA reference
# Procedure: The ppGpp metabolism and biofilm formation related genes RSH, relP, relQ, rsbU, sigB, spA, codY, agrA and icaD were chosen in this study. Primer sequences were designed and listed in Additional file 1: Table S1. The 16s rRNA was used as a housekeeping one. […] After washing twice with PBS, the total RNA was isolated. Then cDNA was obtained followed by removing genomic DNA. Finally, real-time reverse transcription-polymerase chain reaction (qRT-PCR) was conducted as previously described. The relative expression ratios were calculated as follows: n-fold transcription = 2^−△△Ct, ∆∆Ct = ∆Ct (drug-treated)[…]∆Ct (untreated), where ∆Ct represents the difference between the cycle threshold (Ct) of the gene studied and the Ct of housekeeping 16s rRNA gene (internal control). Student’s t test was used for analyzing those PCR results (Lee et al. [2013]).
molecule,measurement,setting,value
"CN[C@H](CC(C)C)C(=O)N[C@H]1C(=O)N[C@@H](CC(N)=O)C(=O)N[C@H]2C(=O)N[C@H]3C(=O)N[C@H](C(=O)N[C@H](C(=O)O)c4cc(O)cc(O)c4-c4cc3ccc4O)[C@H](O)c3ccc(c(Cl)c3)Oc3cc2cc(c3O[C@@H]2O[C@H](CO)[C@@H](O)[C@H](O)[C@H]2O[C@H]2C[C@](C)(N)[C@H](O)[C@H](C)O2)Oc2ccc(cc2Cl)[C@H]1O [vancomycin, reference compound]",MIC,MRSA ATCC43300 [1]; Staphylococcus aureus,1 µg/mL
same,MIC,MSSA ATCC25923; Staphylococcus aureus,1 µg/mL
same,MIC,MSSA ATCC6538; Staphylococcus aureus,1 µg/mL
same,incubation time after which bacteria rejuvenated,MRSA ATCC43300 [2],10 h
"VRLIVAVRIWRR-NH2 [IDR-1018, reference compound]",mean ppGpp peak area after incubation with peptide,[3],19723
same,retained antibacterial activity,[4]; 100 °C for 1 h,50%
same,"MIC at pH 2–10, folds of the normal condition",[5],1-4 times
same,"MIC after trypsin, times of the untreated peptide",trypsin,16-32 times
same,concentration inhibiting migration of genomic DNA,[6],1.25 µg/mL
same,impact on biofilm formation,MRSA ATCC43300 biofilm [7]; 2–64 μg/mL,nearly no impact
same,MBIC100 (anti-biofilm),[8],2 to 10 µg/mL
same,MIC (antibacterial),[8],8 to 256 µg/mL
VRLRWWRRRWRR-NH2 [1018M],mean ppGpp peak area after incubation with peptide,[3],14255
same,MIC,MRSA ATCC43300 [1]; ATCC43300,2 µg/mL
same,MIC,MSSA ATCC25923; ATCC25923,2 µg/mL
same,MIC,MSSA ATCC6538; ATCC6538,1 µg/mL
same,antibacterial activity after heat exposure,"[4]; 20, 40, 60, 80 or 100 °C for 1 h, triplicate",not changed
same,MIC at pH 2–10,"[5]; 3 h, pH 2",2–4 μg/mL
same,"MIC at pH 2–10, folds of the normal condition",[5],1–2 folds
same,activity after treatment with pepsase,pepsin,100%
same,"MIC after trypsin, times of the untreated peptide",trypsin,16-32 times
same,ghost bacteria (TEM),MRSA ATCC43300 [9],About 10%
same,concentration inhibiting migration of genomic DNA,[6],5 µg/mL
same,decrease of percentage of biofilm,"MRSA ATCC43300 biofilm [7]; 64 μg/mL, 24 h, A570",78.9%
same,biofilm formation observed by CLSM,MRSA ATCC43300 biofilm [10],completely inhibited
same,"transcription of AgrA gene, times upregulated",MRSA ATCC43300 [11],2.595 time
